# Assay: Entrapment of daunorubicin in distearoyl phosphatidylcholine-cholesterol vesicles using ethylenediamine citrate (ion-exchange loading)
# Format: physicochemical
# Conditions: lipid:drug ratio approximately at least 16:1 (mol/mol as printed); 65°C for about 10 minutes; typical value
# Experimental: A dry powder containing a homogenous dispersion of cholesterol and distearoylphosphatidylcholine at a 1:2 molar ratio was prepared by evaporation from a 1:1 chloroform/methanol solution. […] The lipid concentration in the resulting suspension was about 20 to 25 mg/ml. This mixture was then heated to 65°C. Next, while maintaining that temperature, the mixture was homogenized using a sonicator to produce a suspension of small unilamellar vesicles. The vesicles thus obtained had diameters principally in the range of about 40 to 80 nm with little or no particles in excess of 100 nm.
# Following homogenization, the mixture underwent a buffer exchange to remove the external, unentrapped, ethylenediamine citrate. This was accomplished by subjecting the mixture to tangential flow ultrafiltration. This process removes water and small molecular weight solutes while retaining lipid vesicles and their contents. Using this process, the lactose/ethylenediamine citrate buffer external to the vesicles was replaced with 250 mM lactose/50 mM glycine. The vesicle preparation was heated to about 65°C and an amount of daunorubicin (base or suitable salt form) was added to yield a lipid to drug ratio in the range of about 16:1 to 19:1 or more (w/w), but preferably 17.4:1. […]
structure (smiles),measurement,value
COc1cccc2c1C(=O)c1c(O)c3c(c(O)c1C2=O)C[C@@](O)(C(C)=O)C[C@@H]3O[C@H]1C[C@H](N)[C@H](O)[C@H](C)O1 [daunorubicin],added daunorubicin vesicle entrapped as daunorubicin-citrate,greater than 90%

# Reference: patent EP0661044A1 (priority 1991, dated 1993)
